Data published in the Kinase Knowledgebase extract (Sharma et al. 2016).

target: PIK3CG (human) (UniProt P48736); assay: Assessment of PIK3CG Kinase Activity
Sequence (P48736 whole entry, looked up): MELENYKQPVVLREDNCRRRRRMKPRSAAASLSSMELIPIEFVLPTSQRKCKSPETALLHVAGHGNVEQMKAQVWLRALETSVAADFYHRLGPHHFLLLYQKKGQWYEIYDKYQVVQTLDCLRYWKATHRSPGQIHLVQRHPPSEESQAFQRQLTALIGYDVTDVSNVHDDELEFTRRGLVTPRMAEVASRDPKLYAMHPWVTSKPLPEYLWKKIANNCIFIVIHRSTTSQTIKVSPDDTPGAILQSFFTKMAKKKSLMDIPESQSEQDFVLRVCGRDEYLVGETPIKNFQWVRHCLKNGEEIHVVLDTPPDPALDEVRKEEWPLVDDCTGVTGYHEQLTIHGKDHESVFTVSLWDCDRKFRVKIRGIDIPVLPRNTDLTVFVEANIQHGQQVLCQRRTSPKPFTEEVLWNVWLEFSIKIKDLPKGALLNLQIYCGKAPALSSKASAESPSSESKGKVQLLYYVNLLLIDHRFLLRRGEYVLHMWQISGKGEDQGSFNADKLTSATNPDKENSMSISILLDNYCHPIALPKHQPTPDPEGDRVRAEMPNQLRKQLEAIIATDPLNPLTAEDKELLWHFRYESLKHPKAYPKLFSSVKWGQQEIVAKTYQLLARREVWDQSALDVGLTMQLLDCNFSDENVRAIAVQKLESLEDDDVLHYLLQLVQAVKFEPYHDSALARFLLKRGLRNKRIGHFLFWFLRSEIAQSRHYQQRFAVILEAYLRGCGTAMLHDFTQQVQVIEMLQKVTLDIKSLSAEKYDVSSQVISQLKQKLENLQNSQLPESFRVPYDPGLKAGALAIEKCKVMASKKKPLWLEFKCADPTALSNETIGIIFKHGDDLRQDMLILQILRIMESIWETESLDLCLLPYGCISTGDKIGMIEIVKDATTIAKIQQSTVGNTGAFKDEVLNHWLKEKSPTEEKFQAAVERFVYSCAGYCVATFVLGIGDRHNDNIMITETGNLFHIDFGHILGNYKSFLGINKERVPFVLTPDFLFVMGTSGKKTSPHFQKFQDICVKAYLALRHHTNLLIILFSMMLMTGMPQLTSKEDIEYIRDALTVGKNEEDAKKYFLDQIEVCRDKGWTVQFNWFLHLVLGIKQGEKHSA

IC50, < 800 nM:
CN(C)S(=O)(=O)N[C@@H]1CCN(C(=O)Nc2nc3c(s2)-c2nc(-c4ccccc4Cl)ncc2CC3)C1, O=C(NCC1CC1)Nc1nc2c(s1)-c1nc(-c3ccccc3Cl)ncc1CC2, CC(C)NC(=O)Nc1nc2c(s1)-c1nc(-c3ccccc3Cl)ncc1CC2, CCn1cc(CNC(=O)Nc2nc3c(s2)-c2nc(-c4ccccc4Br)ncc2CC3)cn1, CC(C)(C)OC(=O)N1CCN(c2ccc(NC(=O)Nc3nc4c(s3)-c3nc(-c5ccccc5Cl)ncc3CC4)cc2)CC1, O=C(NCc1cccc(NC(=O)C2CCCC2)c1)Nc1nc2c(s1)-c1nc(-c3ccccc3Cl)ncc1CC2, CC(C)CNC(=O)Nc1nc2c(s1)-c1nc(-c3ccccc3Cl)ncc1CC2, CC(=O)N(C)c1cccc(CNC(=O)Nc2nc3c(s2)-c2nc(-c4ccccc4Cl)ncc2CC3)c1, CC(=O)N[C@H]1CCN(C(=O)Nc2nc3c(s2)-c2nc(-c4ccccc4Cl)ncc2CC3)C1, CC(C)NC(=O)CCNC(=O)Nc1nc2c(s1)-c1nc(-c3ccccc3Cl)ncc1CC2, O=C(Nc1nc2c(s1)-c1nc(-c3ccccc3Cl)ncc1CC2)N1CCC2(CC1)C(=O)NCN2c1ccccc1, O=C(NCc1cccc(N2CCOCC2)c1)Nc1nc2c(s1)-c1nc(-c3ccccc3Cl)ncc1CC2, O=C(NCc1cccc(C(=O)N2CCOCC2)c1)Nc1nc2c(s1)-c1nc(-c3ccccc3Cl)ncc1CC2, CC(NC(=O)Nc1nc2c(s1)-c1nc(-c3ccccc3Cl)ncc1CC2)c1cccc(NC(=O)OC(C)(C)C)c1 (configuration not stated), CCCn1cnc(CCNC(=O)Nc2nc3c(s2)-c2nc(-c4ccccc4Br)ncc2CC3)c1, CN(C)S(=O)(=O)N[C@H]1CCN(C(=O)Nc2nc3c(s2)-c2nc(-c4ccccc4Cl)ncc2CC3)C1, CCC(=O)N[C@H]1CCN(C(=O)Nc2nc3c(s2)-c2nc(-c4ccccc4Cl)ncc2CC3)C1, COC(=O)CNC(=O)Nc1nc2c(s1)-c1nc(-c3ccccc3Cl)ncc1CC2, COc1cccc(CNC(=O)Nc2nc3c(s2)-c2nc(-c4ccccc4Cl)ncc2CC3)c1, O=C1Cc2ccccc2CN1CC1CCN(C(=O)Nc2nc3c(s2)-c2nc(-c4ccccc4Cl)ncc2CC3)C1 (configuration not stated), CN(C)C(=O)Nc1cccc(CNC(=O)Nc2nc3c(s2)-c2nc(-c4ccccc4Cl)ncc2CC3)c1, COC(=O)N[C@@H]1CCN(C(=O)Nc2nc3c(s2)-c2nc(-c4ccccc4Cl)ncc2CC3)C1, COCCN(C)C(=O)N[C@H]1CCN(C(=O)Nc2nc3c(s2)-c2nc(-c4ccccc4Cl)ncc2CC3)C1, CN(C)C(=O)Nc1nc2c(s1)-c1nc(-c3ccccc3F)ncc1CC2, CC(C)C(=O)N[C@H]1CCN(C(=O)Nc2nc3c(s2)-c2nc(-c4ccccc4Cl)ncc2CC3)C1, CCN1CCC2(CCN(C(=O)Nc3nc4c(s3)-c3nc(-c5ccccc5Cl)ncc3CC4)C2)C1 (configuration not stated), CC(C)CCNC(=O)CCNC(=O)Nc1nc2c(s1)-c1nc(-c3ccccc3Cl)ncc1CC2, O=C(NCc1ccccc1N1CCCCC1)Nc1nc2c(s1)-c1nc(-c3ccccc3Cl)ncc1CC2, CC(C)(C)OC(=O)N1CCC[C@H]1CNC(=O)Nc1nc2c(s1)-c1nc(-c3ccccc3Cl)ncc1CC2, CC(C)(C)OC(=O)N1CCCC(CNC(=O)Nc2nc3c(s2)-c2nc(-c4ccccc4Cl)ncc2CC3)C1 (configuration not stated), COCCN(C)C(=O)Nc1nc2c(s1)-c1nc(-c3ccccc3Cl)ncc1CC2, Cn1ccc(CNC(=O)Nc2nc3c(s2)-c2nc(-c4ccccc4Cl)ncc2CC3)n1
